Measured values published in US20080021098A1, “Antifungal Compositions” (GIVAUDAN SA, priority 2004, published 2008).

System: Cladosporium sphaerospermum IK-65 on cotton fabrics / Cladosporium sphaerospermum MTL on plaster
Assay: Minimal headspace level required for antifungal activity (olfactometer, constant fragrance vapour)
Assay type: cell-based
Settings: test phase of 7 days; for Effect on fungal growth: at the headspace level of the same line; for Headspace level required to inhibit fungal growth: constant vapour concentration
Protocol: In order to determine the effective level of the anti-mould fragrance compounds needed for anti-mould vapour phase activity, an olfactometer is constructed that allows delivery to the fungal growth substrate of a constant concentration of fragrance vapour. A stream of nitrogen is saturated with the fragrance component, and the fragrance-saturated gas is then diluted with water saturated air at different ratios. This mixture is then blown continuously through enclosed acryl-glass boxes and the headspace is measured by sampling 1 ml gas sample with subsequent analysis in the gas chromatograph. Once a steady state in the acryl-glass box is reached (usually within 1-3 days), a fungal inoculum on a relevant substrate is added to the box, and fungal growth during a test phase of 7 days is evaluated.
The following relevant substrate—inoculum combinations were used: • (a) White pieces of cotton fabrics were soaked with a solution of potato dextrose broth diluted to a final concentration of 5% containing spores from the fungal test strain Cladosporium sphaerospermum IK-65 diluted to a final density corresponding to an optical density at 600 nm of 0.01. The test strain IK 65 was isolated from moist fabrics having fungal off odors, and it is a typical strain growing on fabrics as substrate. • (b) White plaster used for fixing ceramic tiles in bathrooms was spread homogenously on the back of 35 mm Petri dishes. On each Petri dish, 160 μl of a fungal inoculum was evenly spread. It contained potato dextrose broth diluted to a final concentration of 50% and spores from the fungal test strain Cladosporium sphaerospermum MTL diluted to a final density corresponding to an optical density at 600 nm of 0.004. The test strain MTL was isolated from a bathroom with vigorous mould growth on the plaster between tiles.

| Structure (SMILES) | Effect on fungal growth | Headspace level required to inhibit fungal growth [µg/L] |
| --- | --- | --- |
| CC1=CC(C)C(C=O)CC1 (stereo not shown) [1-carboxaldehyde-2,4-dimethyl-cyclohex-3-en] | over 90% inhibition | 21 |
| CC1(C)CCCC2=C1CC(C=O)CC2 (stereo not shown) [8,8-Dimethyl-1,2,3,4,5,6,7,8-octahydro-naphthalene-2-carbaldehyde] | complete inhibition | 4.9 |
| CC1=CCC(C(C)CCO)CC1 (stereo not shown) [3-(4-methyl-3-cyclohexenyl)-butanol] | 80% inhibition | 4.5 |
| COc1ccc(C=O)cc1 [4-methoxy-benzaldehyde] | over 90% inhibition | 7.5 |
| COc1ccc(CC(C)C=O)cc1 (stereo not shown) [3-(4-methoxyphenyl)-2-methyl-propanal] | complete inhibition | 1.9 |
